From patent publication US5439891A (priority 1993, dated 1995)

Assays:
[1] = cited from earlier work
[2] = in vivo
[3] = type: in vivo; conditions: rats; in combination with piperine

Row | Compound | solubility in organic solvents ([1]; benzene, chlorform, ether, ethyl acetate, dichloromethane, alcohol, acetic acid) | solubility in pet. ether ([1]; pet. ether) | solubility in water ([1]; water) | bioavailability of the drugs in blood [2] | AUC compared to drugs without piperine in equivalent doses [3] | plasma levels [3] | bioavailability in combination with piperine [2]
1 | O=C(/C=C/C=C/c1ccc2c(c1)OCO2)N1CCCCC1 [Piperine, (E, E) 1-[5-(1,3-benzodioxyl-5-yl)-1-oxo-2,4-pentadenyl] piperidine] | soluble | insoluble | insoluble | increase in the bioavailability |  |  | 
2 | NNC(=O)c1ccncc1 [isoniazid] |  |  |  |  | very high AUC | significant increase | 
3 | NC(=O)c1cnccn1 [pyrazinamide] |  |  |  |  | very high AUC | significant increase | 
4 | CO[C@H]1/C=C/O[C@@]2(C)Oc3c(C)c(O)c4c(O)c(c(/C=N/N5CCN(C)CC5)c(O)c4c3C2=O)NC(=O)/C(C)=C\C=C\[C@H](C)[C@H](O)[C@@H](C)[C@@H](O)[C@@H](C)[C@H](OC(C)=O)[C@@H]1C [rifampicin] |  |  |  |  | very high AUC | significant increase | significantly increasing the bioavailability
